# Measurements from US20260315763A1, “OLFACTORY DELIVERY OF THERAPEUTIC PEPTIDES” (Rocket Science Health Corp., priority 2023, published 2026).
# “Also recorded” adds a separate entry of the source.
# Key:
# [1] = test system: prefrontal brain activity; experiment: Insulin delivery fMRI analysis: ALFF, prefrontal brain activity; assay type: in vivo, human (participants)
# Excerpt: In the in-human studies below, the device was tuned to eject the fluid at a specific velocity. This velocity was chosen based on the viscosity of the fluid and the studies described in Example 1, to maximize the extent of laminar flow.
# (§1) Participants: Eight participants (male and female, ages 23-30) were recruited for this study from the New Brunswick area. Participants reported no history of abnormal nasal or sinus symptoms, insulin use, diabetes, metabolic disorder, or any complicating medical conditions, or contraindications for nasal cannulation, MRI or venous blood sampling. Additionally, participants reported no previous diagnosis of SARS-COV-2 with symptoms of anosmia. Study procedures were approved by Horizon Health Network's Human Research Protection Program prior to recruitment of participants.
# (§2) Study Design: An open-label 4-arm crossover study design was used to understand the insulin brain effects between the focal deposition (cannula) and the standard nasal mister method. Undiluted solution of 80 IU (0.16 ml) prepared from U500 insulin was delivered to the olfactory region (condition A). Under this condition, 40 IU (0.08 ml) of human insulin was delivered directly by an ENT physician to each nostril. For condition B, undiluted solution containing 15% MucoLox (a thickening agent) and 80 IU (0.16 ml) insulin was delivered to the olfactory region. For condition C, a total of 1.6 ml insulin and sterile water mixture was prepared for Nasal spray delivery. The nasal spray bottle contained 80 IU of U500 insulin mixed with a sterile water solution. The spray was delivered over 4 minutes with two puffs per nostril every minute. Condition sequences AC, CA, BC, and CB comprise the 4 arms of the study.
# Participants were randomly assigned to one of two blocks. In Block 1, participants were randomly assigned by alternating sequence to one of the A arms (AC or CA). […] In Block 2, participants were randomly assigned by alternating sequence to one of the B arms (BC or CB). Block 2 participants did receive MucoLox in the cannula session. For a given participant, appointments for each condition were scheduled at a minimum of 14 days apart to ensure no carry-over effects from the previous condition.
# MRI Acquisition: Magnetic resonance imaging was completed at an imaging clinic in Moncton (Moncton MRI) using standard sequences on a 3T Siemens Skyra, VD13. Anatomical T1-weighted MPRAGE images were acquired for each subject [TR=1900 ms, TE=2.99 ms, Flip Angle=9 degrees, Voxel Size=0.45×0.45×0.9 mm, Dimensions=448×512×160]. Resting state functional T2*-weighted BOLD images [TR=2600 ms, TE=30 ms, Flip Angle=90 degrees, Voxel Size=3×3×3 mm, Dimensions=80×80×45] were acquired for each subject at baseline and again 15 minutes and 60 minutes following intranasal delivery of insulin. Each resting state functional scan consisted of 180 volumes acquired over the course of 7 minutes and 48 seconds.
# MRI Preprocessing: MRI data was preprocessed using fMRIPrep. Preprocessing steps of the anatomical images included correction for intensity nonuniformity, skull stripping, segmentation of gray matter, white matter, and cerebrospinal fluid (CSF) masks, and normalization to MNI template space. Preprocessing steps for the functional images included slice time correction, head motion correction (calculation of framewise displacement and 6-degrees of motion parameters and their temporal derivatives), registration to the subjects T1w image, normalization to MNI template space, and spatial smoothing (3 mm FWHM Gaussian kernel).
# fMRI Denoising: Functional MRI data were denoised using a standard denoising pipeline implemented in the CONN Toolbox (v 22.a) and SPM (v 12.7). […]
# [2] = test system: anterior division of the cingulate gyrus; experiment: fMRI region of interest analysis: mean ALFF in anterior division of the cingulate gyrus; assay type: in vivo, human (participants); settings: both olfactory delivery and spray conditions; 80 IU; baseline, 15, 60 min
# Excerpt: as §1
# as §2, with “The spray was delivered over 4 minutes with two puffs per nostril every minute. Condition sequences AC, CA, BC, and CB comprise the 4 arms of the study.” left out
# inferior temporal gyrus = experiment: fMRI region of interest analysis: mean ALFF in inferior temporal gyrus; assay type: in vivo, human (participants); settings: both olfactory delivery and spray conditions; 80 IU; baseline, 15, 60 min
# Excerpt: as §1
# as §2, with “The spray was delivered over 4 minutes with two puffs per nostril every minute. Condition sequences AC, CA, BC, and CB comprise the 4 arms of the study.” left out
# [3] = test system: prefrontal and posterior brain regions; experiment: fMRI control analysis: ALFF in spray condition across Blocks 1 and 2; assay type: in vivo, human (participants); settings: insulin without MucoLox, 80 IU
# Excerpt: as §1
# as §2, with “The spray was delivered over 4 minutes with two puffs per nostril every minute. Condition sequences AC, CA, BC, and CB comprise the 4 arms of the study.” left out
# [4] = Visualizing olfactory cleft delivery with methylene blue (nasal endoscopy); assay type: in vivo, human (healthy participants)
# Excerpt: The primary goal of these studies is to visualize delivery to the olfactory cleft (first with technetium-99, and then with methylene blue). The device was tuned to eject the fluid at a specific velocity. This velocity was chosen based on the viscosity of the fluid and the studies in Example 1, to maximize the extent of laminar flow.
# Visualizing Olfactory Cleft Delivery with Methylene Blue
# Participants: Five healthy participants (ages 19+) with no history of sinonasal symptoms and no evidence of nasal inflammation were recruited for this study. Prior to recruitment of participants study procedures were approved by Providence Health Care research ethics board, (British Columbia, Canada) and conducted under Health Canada Investigational Testing Authorization #314993. All participants were assessed by a licensed otolaryngologist physician to confirm their eligibility. Participants completed two study visits during which a licensed otolaryngologist physician administered 0.1 mL of the visual dye tracer, methylene blue.
# Study Design: During the first visit, the methylene blue was administered using the Laminar Fluid Ejection method (1.5 mm cannula; velocity=4.5 m/s). During the second visit, methylene blue was administered using a conventional nasal spray device (Pharma systems Item #10272, UPC: 063636802714). The Pharma systems spray device was used in these experiments because it was the device normally used by the compounding pharmacy for intranasal delivery. It was the device patients and clinicians were used to at this clinic.
# Following delivery, the physician used a nasal endoscope to image the deposition of methylene blue to the olfactory cleft at up to five time points (1, 5, 8, 12, and 15 minutes following delivery). From each image, the physician judged whether at least 50% of the methylene blue fluid was delivered to the olfactory cleft. If <50% of the methylene blue was judged to have deposited in the olfactory cleft, imaging was stopped and that session's trial was completed.
compound,measurement,setting,value
insulin: Undiluted solution of 80 IU (0.16 ml) prepared from U500 insulin; spray: 80 IU of U500 insulin mixed with a sterile water solution,prefrontal brain activity compared to baseline,"[1]; 80 IU intranasal insulin, scans after receiving insulin (15 and 60 minutes)",decreased prefrontal brain activity compared to baseline scans
same,"decrease in prefrontal brain activity, olfactory delivery device compared to spray mister","[1]; 80 IU, olfactory delivery device vs traditional spray mister",larger and longer-lasting decrease in prefrontal brain activity
same,"prefrontal deactivation, olfactory delivery device compared to spray device","[1]; Block 1 (insulin without MucoLox), 80 IU",greater and more sustained
same,"reduction in prefrontal brain activity, olfactory delivery compared to spray","[1]; Block 1, 80 IU, 60 minutes",even more intense in the olfactory delivery condition
same,change in prefrontal brain activity compared to baseline,"[1]; Block 1, both spray and olfactory delivery device, 80 IU, 15 minutes",reduction in brain activity in prefrontal regions
same,change in prefrontal brain activity compared to baseline,"[1]; Block 1, olfactory delivery device, 80 IU, 15 minutes, compared to insulin with MucoLox (Block 2)",this reduction is greater in the absence of MucoLox
same,change in prefrontal brain activity compared to baseline,"[1]; Block 2, spray mister, 80 IU, 15 minutes",small decrease of prefrontal brain activity
same,change in prefrontal brain activity compared to baseline,"[1]; Block 2, spray mister, 80 IU, 60 minutes",remained deactivated
same,"reduction in prefrontal brain activity, spray condition compared to olfactory delivery with MucoLox","[1]; Block 2, spray, 80 IU, 60 minutes",more intense in the spray condition
same,duration of reduction of brain activity after delivery,[1]; delivery of insulin using the method disclosed (olfactory delivery),at least 60 minutes
same,"deactivation of the prefrontal cortex, olfactory delivery device compared to spray mister","[1]; intranasal delivery of insulin, 80 IU, overall conclusion",deactivation of the prefrontal cortex to a greater degree
same,"deactivation of prefrontal cortex, insulin alone compared to insulin with MucoLox","[1]; olfactory delivery device, 80 IU","greater, longer lasting deactivation of prefrontal cortex"
same,"reduction in prefrontal brain activity, Block 1 compared to Block 2 (MucoLox)","[1]; olfactory delivery device, 80 IU, 60 minutes",more intense in Block 1 participants who did not receive MucoLox
same,"ALFF over time, anterior division of the cingulate gyrus",[2],decreased over time; also recorded: decrease in ALFF in both the olfactory delivery and spray conditions
same,"ALFF over time, inferior temporal gyrus",inferior temporal gyrus,increased over time; also recorded: increase in ALFF for both conditions
same,"brain activity, Block 2 compared to Block 1 participants",[3]; 15 minutes,increased brain activity in prefrontal cortex and reduced brain activity in posterior brain regions
same,"brain activity, Block 2 compared to Block 1 participants",[3]; 60 minutes,decreased brain activity in select prefrontal and posterior regions
"CN(C)c1ccc2nc3ccc(=[N+](C)C)cc-3sc2c1 [Methylene Blue, methylene blue]",participants with successful delivery of >50% of the methylene blue to the olfactory cleft,"[4]; Laminar Fluid Ejection method, 0.1 mL",Four of the five participants
same,delivery of at least 50% of the dye to the olfactory cleft,"[4]; conventional nasal spray, each of the five participants",failed to deliver at least 50% of the dye to the olfactory cleft
same,Olfactory Residence Time,"[4]; participant 2.01, LFE Method, 0.1 mL, 1 attempt",15 min
same,Olfactory Residence Time,"[4]; participant 2.01, Nasal Spray, 0.1 mL, 1 attempt",0 min
same,Olfactory Residence Time,"[4]; participant 2.02, LFE Method, 0.1 mL, 2 attempts",8 min
same,Olfactory Residence Time,"[4]; participant 2.02, Nasal Spray, 0.1 mL, 1 attempt",0 min
same,Olfactory Residence Time,"[4]; participant 2.03, LFE Method, 0.1 mL, 1 attempt",5 min
same,Olfactory Residence Time,"[4]; participant 2.03, Nasal Spray, 0.1 mL, 1 attempt",0 min
same,Olfactory Residence Time,"[4]; participant 2.04, LFE Method, 0.1 mL, 5 attempts",0 min
same,Olfactory Residence Time,"[4]; participant 2.04, Nasal Spray, 0.1 mL, 1 attempt",0 min
same,Olfactory Residence Time,"[4]; participant 2.05, LFE Method, 0.1 mL, 1 attempt",1 min
same,Olfactory Residence Time,"[4]; participant 2.05, Nasal Spray, 0.1 mL, 1 attempt",0 min
